Source: ChEMBL document CHEMBL1141168, “Studies toward the pharmacophore of salvinorin A, a potent kappa opioid receptor agonist” (J Med Chem, 2005)

Assays:
[1] = target: T1, Kappa-type opioid receptor (Rattus norvegicus, UniProt P34975); experiment: biochemical; assay type: cell-based, HEK293
Description: Inhibition of [3H]U-69593 binding to rat opioid receptor kappa 1 expressed in HEK 293 cells

Rattus norvegicus [2] = organism: Rattus norvegicus; experiment: Emax value against intracellular calcium mobilization in rat; assay type: functional
Rattus norvegicus [3] = organism: Rattus norvegicus; experiment: Effective concentration of compound against intracellular calcium mobilization in rat; assay type: functional
[4] = target: T1, Kappa-type opioid receptor; experiment: Inhibition of [3H]diprenorphine binding to rat opioid receptor kappa 1 expressed in HEK 293 cells; assay type: cell-based, HEK293

T1 sequence (P34975 whole entry): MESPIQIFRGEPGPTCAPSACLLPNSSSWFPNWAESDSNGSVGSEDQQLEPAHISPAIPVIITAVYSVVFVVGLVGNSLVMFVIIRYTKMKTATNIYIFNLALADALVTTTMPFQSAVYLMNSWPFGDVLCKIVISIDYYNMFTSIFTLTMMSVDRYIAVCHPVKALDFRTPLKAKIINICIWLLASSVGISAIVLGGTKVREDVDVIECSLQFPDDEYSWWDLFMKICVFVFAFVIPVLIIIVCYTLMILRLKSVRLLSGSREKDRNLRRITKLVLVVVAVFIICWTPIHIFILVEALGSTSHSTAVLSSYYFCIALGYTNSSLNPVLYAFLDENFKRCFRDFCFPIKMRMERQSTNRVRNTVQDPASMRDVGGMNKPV

| Structure (SMILES) | Ki [1] [nM] | Emax (Rattus norvegicus [2]) [%] | EC50 (Rattus norvegicus [3]) [nM] | Ki [4] [nM] |
| --- | --- | --- | --- | --- |
| COC(=O)C1=C[C@H](O)[C@H](OC(C)=O)[C@@H]2[C@@]3(C)C[C@@H](c4ccoc4)OC(=O)[C@@H]3CC[C@@]12C | > 10000 | – | – | – |
| COC(=O)[C@@H]1C[C@H](OC(C)=O)C(=O)[C@H]2[C@@]1(C)CCC1=CO[C@H](c3ccoc3)C[C@@]12C | 6 | 103 | 223 | – |
| COC(=O)C1=C[C@H](OC(C)=O)[C@H](O)[C@@H]2[C@@]3(C)C[C@@H](c4ccoc4)OC(=O)[C@@H]3CC[C@@]12C | – | – | – | > 10000 |
| COC(=O)[C@@H]1C[C@H](OC(C)=O)C(=O)[C@H]2[C@@]1(C)CC[C@H]1C(O)O[C@H](c3ccoc3)C[C@]21C (some centres undefined) | 59 | 107 | 78 | – |
| COC(=O)[C@@H]1C[C@H](OC(C)=O)[C@H](OC(C)=O)[C@H]2[C@@]1(C)CC[C@H]1C(=O)O[C@H](c3ccoc3)C[C@]21C | > 10000 | – | – | – |
| COC(=O)[C@@H]1C[C@H](OC(C)=O)C(=O)[C@H]2[C@@]1(C)CC[C@H]1C(=O)O[C@H](C3CCOC3)C[C@]21C (some centres undefined) | 156 | 108 | 126 | – |
| COC(=O)[C@@H]1C[C@H](OC(C)=O)C[C@H]2[C@@]1(C)CC[C@H]1C(=O)O[C@H](c3ccoc3)C[C@]21C | 18 | 122 | 141 | – |
| COC(=O)C1=C[C@H](OC(C)=O)[C@H](OC(C)=O)[C@@H]2[C@@]3(C)C[C@@H](c4ccoc4)OC(=O)[C@@H]3CC[C@@]12C | 1020 | – | – | – |
| COC(=O)[C@@H]1C[C@H](OC(C)=O)C(=O)[C@@H]2[C@@]3(C)C[C@@H](c4ccoc4)OC[C@@H]3CC[C@]21C | 6 | 103 | 223 | – |
| COC(=O)[C@@H]1C[C@H](OC=O)C(=O)[C@H]2[C@@]1(C)CC[C@H]1C(=O)O[C@H](c3ccoc3)C[C@]21C | 18 | 108 | 315 | – |
| CC(=O)O[C@H]1C[C@@H](CO)[C@]2(C)CC[C@H]3C(=O)O[C@H](c4ccoc4)C[C@]3(C)[C@H]2C1=O | 347 | – | > 10000 | – |
| COC(=O)[C@@H]1C[C@H](OC(C)=O)[C@H](O)[C@H]2[C@@]1(C)CC[C@H]1C(=O)O[C@H](c3ccoc3)C[C@]21C [1-ALPHA-HYDROXYSALVINORIN A] | 1130 | – | – | – |
| COC(=O)[C@@H]1C[C@H](OC(C)=O)C(=O)[C@@H]2[C@@]3(C)C[C@@H](c4ccoc4)OC(=O)[C@H]3CC[C@]21C [SALVINORIN A (ESTER)] | – | 78 | 244 | – |
| COC(=O)[C@@H]1C[C@H](OC(C)=O)C(=O)[C@H]2[C@@]1(C)CC[C@H]1C(=O)O[C@H](c3ccoc3)C[C@]21C [SALVINORIN A] | – | 100 | 46 | – |
